Data reported in PubChem BioAssay AID1626 (SRMLSC, 2009).

Test system: M. tuberculosis H37Rv growth inhibition
Experiment: M. tuberculosis H37Rv growth inhibitors, H37Rv strain (AID 1626)
Details: for IC90: measured here: IC90 against H37Rv; for CC50: measured here: Vero cell cytotoxicity

Structure (SMILES)	IC50	IC90	CC50
CCOC(=O)c1ccc(COC(=O)c2ccc(-c3nnc(-c4ccccc4)o3)cc2)o1	23.4 µM	> 100 µM	> 40 µM
CCCCOc1ccc(C(=O)N/C(=C/C=C/c2ccccc2)C(=O)N2CCOCC2)cc1	13.9 µM	> 100 µM	> 40 µM
O=C(c1cc2cc3ccc(Cl)cc3nc2o1)N1CCC2(CC1)OCCO2	3.56 µM	7.22 µM	
COc1ccc(C(C)(C)C)cc1NC(=O)COC(=O)c1cc(SC)ccc1Cl	54.6 µM	> 100 µM	
CC(C)N1CCC2(CC1)N=C(c1ccc3c(c1)OCO3)CC(c1cc(Cl)ccc1O)N2 (configuration not stated)	8.26 µM	12.4 µM	12.5 µM
CCCC(=O)N1CCN(c2ccc(NC(=O)c3ccc([N+](=O)[O-])o3)cc2)CC1	1 µM	2.22 µM	3.1 µM
CCOC(=O)CSc1nnc(-c2cc(OC)c(OC)c(OC)c2)o1	1.62 µM	4.38 µM	
N=C1SCC(=O)N1c1ncc(Cc2cccc(Cl)c2)s1	< 0.195 µM	4.92 µM	> 40 µM
COC(=O)CSc1nc(N)c2c3c(sc2n1)CCCC3	2.54 µM	4.12 µM	
Cc1ccc(-n2cc(CN(C)Cc3nccn3C)c(-c3cccc(C)c3)n2)cc1	9.75 µM	15.9 µM	> 40 µM
O=[N+]([O-])c1ccc(Sc2nnnn2-c2ccccc2)nc1	8.34 µM	12.6 µM	8.99 µM
Cc1nc2ccc(NC(=O)COc3cccc(F)c3)cc2s1	20.6 µM	> 100 µM	
O=C(OCc1ccc(F)cc1)c1ccc2ccccc2n1	8.16 µM	14.4 µM	
Nc1ccc2oc(-c3cc(Br)ccc3Cl)nc2c1	18.6 µM	> 100 µM	
CCOC(=O)c1cccc(NC(=O)CCc2nc(-c3ccc(C)cc3)no2)c1	30.1 µM	> 100 µM	
CCCCCCOC(=O)c1ccc(NC(=O)c2cc(OC)c(OC)c(OC)c2Br)cc1	5.27 µM	8.11 µM	> 40 µM
CCOC(=O)CSc1nc(-c2ccccc2)ns1	5.59 µM	8.55 µM	
COc1ccccc1-c1nnc(NC(=O)C2=COCCO2)o1	8.99 µM	15.5 µM	> 40 µM
O=C(c1ccc2c3c(cccc13)CC2)C1CCCN(Cc2ccccn2)C1 (configuration not stated)	10 µM	> 100 µM	> 40 µM
O=c1oc2ccccc2c(Nc2ccc3ccccc3c2)c1[N+](=O)[O-]	7.32 µM	> 100 µM	> 40 µM
CCC(=O)Nc1nc2ccccc2n1Cc1ccccc1C	1.47 µM	> 100 µM	> 40 µM

Structure (SMILES)	IC50	IC90	CC50
O=C(c1ccc(Cl)cc1)C1CCCN(Cc2cnn(-c3ccccc3)c2)C1 (configuration not stated)	8.69 µM	11.5 µM	
Cc1ccc(N/C(N)=N/c2nc(C)cc(N3CCCCC3)n2)c(C)c1	2.17 µM	3.68 µM	9.19 µM
Cc1ccc(C2CC(C(F)(F)F)n3nc(C(=O)NCc4ccco4)cc3N2)cc1 (configuration not stated)	0.92 µM	1.79 µM	
Cc1[nH]n(-c2nc(-c3ccc(Cl)cc3)cs2)c(=O)c1N=Nc1ccc(O)cc1	< 0.195 µM	5.6 µM	15.8 µM
N=C1SCC(=O)N1c1ncc(Cc2ccc(F)cc2)s1	< 0.195 µM	> 100 µM	> 40 µM
O=C(COC(=O)C1COc2ccccc2O1)NC(=O)Nc1ccc2c(c1)OCCO2 (configuration not stated)		> 100 µM	
O=C(Nc1nc(-c2ccccn2)cs1)C1CC1	3.96 µM	> 100 µM	> 40 µM
CC(C)c1ccc(CNC(=O)C(=O)Nc2nccs2)cc1	49.8 µM	> 100 µM	
O=[N+]([O-])c1cc(CN2CCN(c3cccc(C(F)(F)F)c3)CC2)c2cccnc2c1O	13.2 µM	> 100 µM	1.49 µM
O=C(Nc1nnc(SCc2ccc(F)cc2)s1)c1ccccn1	0.342 µM	5.05 µM	4.74 µM
O/N=C/c1ccc(-c2cc(Cl)ccc2Cl)o1		> 100 µM	
COc1cccc(C(=O)Nc2ccc3nc(N4CCN(c5ncccn5)CC4)cc(C)c3c2)c1OC	< 0.195 µM	1.72 µM	15.2 µM
Cc1cccc(C)c1OCC(=O)Nc1cccc(-c2nnc(-c3ccccc3)o2)c1	10.7 µM	> 100 µM	> 40 µM
Clc1ccc(CNc2nc(CN3CCOCC3)nc3scc(-c4ccccc4)c23)cc1	22 µM	25 µM	> 40 µM
O=[N+]([O-])c1ccc(-c2ccc(/C=N/O)o2)cc1		> 100 µM	
c1ccc(CN2CCC(N=C3NN=C(c4ccc5c(c4)OCCO5)CS3)CC2)cc1	18.2 µM	21.6 µM	> 40 µM
O=C(Nc1ccc(Cl)cc1)Nc1csc([N+](=O)[O-])c1	79.1 µM	> 100 µM	
COc1ccc(C2CC(=O)N3CN(c4ccc(C)c(Cl)c4)CSC3=C2C#N)cc1OC (configuration not stated)		> 100 µM	
Cc1cc(C)n(-c2nc(SCCN(C)C)c3c4c(sc3n2)CCCC4)n1	4.2 µM	6.19 µM	11.6 µM
O=C(Nc1nnc(-c2ccco2)o1)c1cccc2ccccc12	2.34 µM	6.25 µM	39.4 µM
